Laboratory results as given in patent US10821115B2, “Compounds that inhibit Mcl-1 protein” (priority 2017, dated 2020).
Where two headings read alike, the source gives them in different places.

Tests used:
[1] = molecular target: recombinant human Mcl-1 (residues 171-327) / Bim interaction (Homo sapiens (Human), UniProt Q07820); assay: biochemical; assay type: binding; details: read-out: Mcl-1 HTRF IC50
[2] = test system: human multiple myeloma cell line, OPM-2; assay: Cell viability assay (OPM-2 10 FBS), CellTiter-Glo; assay type: cell-based; details: Homo sapiens, OPM-2, 16 h
Summary of the method: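 Serially diluted test compounds are incubated 16 h with cells (3000/well) in RPMI 1640 supplemented with 10% FBS. Viability is then measured by luminescence and IC50 calculated by 4-parameter logistic fit.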

[3] = 0.1 nM Mcl-1(171-327), 0.05 nM biotin-Bim (51-76)
[4] = read-out: OPM-2 10% FBS IC50 IP, OPM-2 cells, 10% FBS, 16 h incubation
[5] = TR-FRET, Mcl-1(171-327) / biotin-Bim (51-76)
[6] = read-out: OPM-2 10% FBS IC50 IP, OPM-2 cells, 10% FBS, 16 h, CellTiter-Glo

Sequence of recombinant human Mcl-1 (residues 171-327) / Bim interaction (Q07820 171-327): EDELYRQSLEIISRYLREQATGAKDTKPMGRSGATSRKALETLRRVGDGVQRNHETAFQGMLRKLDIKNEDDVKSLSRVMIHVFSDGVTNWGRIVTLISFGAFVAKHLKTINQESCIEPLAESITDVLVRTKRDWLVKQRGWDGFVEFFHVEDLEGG

| SMILES | IC50 [1, 3] | IC50 [2, 4] | IC50 [1, 5] | IC50 [2, 6] |
| --- | --- | --- | --- | --- |
| CCO[C@]1(CN2CCN3CCCC[C@@H]3C2)/C=C/CC[C@@H](CC)S(=O)(=O)NC(=O)c2ccc3c(c2)N(C[C@@H]2CC[C@H]21)C[C@@]1(CCCc2cc(Cl)ccc21)CO3 [Example 42, (1S,3′R,6′R,7′R,8′E,12′R)-6-chloro-7′-ethoxy-12′-ethyl-7′-((9aR)-octahydro-2H-pyrido[1,2-a]pyrazin-2-ylmethyl)-3,4-dihydro-2H,15′H-spiro[naphthalene-1,22′-[20]oxa[13]thia[1,14]diazatetracyclo [14.7.2.0~3,6~.0~19,24~]pentacosa[8,16,18,24]tetraen]-15′-one 13′,13′-dioxide] | 0.17 nM | 149 nM | – | – |
| CO[C@]1(CN2CCN3C(=O)[C@H](C)OC[C@@H]3C2)/C=C/C[C@H](C)[C@@H](C)S(=O)(=O)NC(=O)c2ccc3c(c2)N(C[C@@H]2CC[C@H]21)C[C@@]1(CCCc2cc(Cl)ccc21)CO3 [Example 142, (1S,3′R,6′R,7′R,8′E,11′S,12′R)-6-chloro-7′-methoxy-11′,12′-dimethyl-7′-(((3S,9aS)-3-methyl-4-oxohexahydropyrazino[2,1-c][1,4]oxazin-8(1H)-yl)methyl)-3,4-dihydro-2H,15′H-spiro[naphthalene-1,22′-[20]oxa[13]thia[1,14]diazatetracyclo [14.7.2.0~3,6~.0~19,24~]pentacosa[8,16,18,24]tetraen]-15′-one 13′,13′-dioxide] | 0.157 nM | 174 nM | – | – |
| CO[C@]1(CN2CCN3CCCC[C@@H]3C2)/C=C/C[C@H](C)[C@@H](C)S(=O)(=O)NC(=O)c2ccc3c(n2)N(C[C@@H]2CC[C@H]21)C[C@@]1(CCCc2cc(Cl)ccc21)CO3 [Example 186, (1S,3′R,6′R,7′R,8′E,11′S,12′R)-6-chloro-7′-methoxy-11′,12′-dimethyl-7′-((9aR)-octahydro-2H-pyrido[1,2-a]pyrazin-2-ylmethyl)-3,4-dihydro-2H,15′H-spiro[naphthalene-1,22′-[20]oxa[13]thia[1,14,25]triazatetracyclo [14.7.2.0~3,6~.0~19,24~]pentacosa[8,16,18,24]tetraen]-15′-one 13′,13′-dioxide] | 0.255 nM | 431 nM | – | – |
| C[C@@H]1CS(=O)(=O)NC(=O)c2ccc3c(c2)N(C[C@@H]2CC[C@H]2[C@@](O)(CN2CCN(C4COC4)CC2)/C=C/[C@@H]1C)C[C@@]1(CCCc2cc(Cl)ccc21)CO3 [Example 165, (1S,3′R,6′R,7′R,8′E,10′S,11′S)-6-chloro-7′-hydroxy-10′,11′-dimethyl-7′-((4-(3-oxetanyl)-1-piperazinyl)methyl)-3,4-dihydro-2H,15′H-spiro[naphthalene-1,22′-[20]oxa[13]thia[1,14]diazatetracyclo [14.7.2.0~3,6~.0~19,24~]pentacosa[8,16,18,24]tetraen]-15′-one 13′,13′-dioxide] | 0.19 nM | 182 nM | – | – |
| C#C[C@@]1(OCCN2CCOCC2)/C=C/C[C@H](C)[C@@H](C)S(=O)(=O)NC(=O)c2ccc3c(c2)N(C[C@@H]2CC[C@H]21)C[C@@]1(CCCc2cc(Cl)ccc21)CO3 [Example 100505, (1S,3′R,6′R,7′R,8′E,11′S,12′R)-6-chloro-7′-ethynyl-11′,12′-dimethyl-7′-(2-(4-morpholinyl)ethoxy)-3,4-dihydro-2H,15′H-spiro[naphthalene-1,22′-[20]oxa[13]thia[1,14]diazatetracyclo [14.7.2.0~3,6~.0~19,24~]pentacosa[8,16,18,24]tetraen]-15′-one 13′,13′-dioxide] | – | – | 0.165 nM | 137 nM |
| COC[C@]1(OC)/C=C/C[C@H](C)[C@@H](C)S(=O)(=O)NC(=O)c2ccc3c(c2)N(C[C@@H]2CC[C@H]21)C[C@@]1(CCCc2cc(Cl)ccc21)CO3 [Example 100401, (1S,3′R,6′R,7′S,8′E,11′S,12′R)-6-chloro-7′-methoxy-7′-(methoxymethyl)-11′,12′-dimethyl-3,4-dihydro-2H,15′H-spiro[naphthalene-1,22′-[20]oxa[13]thia[1,14]diazatetracyclo [14.7.2.0~3,6~.0~19,24~]pentacosa[8,16,18,24]tetraen]-15′-one 13′,13′-dioxide] | – | – | 1.8 nM | 8390 nM |
| CO[C@]1(CN2CCN3CCOC[C@@H]3C2)/C=C/[C@H](C)[C@H](C)CS(=O)(=O)NC(=O)c2ccc3c(c2)N(C[C@@H]2CC[C@H]21)C[C@@]1(CCCc2cc(Cl)ccc21)CO3 [Example 157, (1S,3′R,6′R,7′R,8′E,10′S,11′S)-6-chloro-7′-((9aS)-hexahydropyrazino[2,1-c][1,4]oxazin-8(1H)-ylmethyl)-7′-methoxy-10′,11′-dimethyl-3,4-dihydro-2H,15′H-spiro[naphthalene-1,22′-[20]oxa[13]thia[1,14]diazatetracyclo [14.7.2.0~3,6~.0~19,24~]pentacosa[8,16,18,24]tetraen]-15′-one 13′,13′-dioxide] | 0.126 nM | 121 nM | – | – |
| CO[C@@]1(CN2CCN(c3cncnc3)CC2)/C=C/C[C@H](C)[C@@H](C)S(=O)(=O)NC(=O)c2ccc3c(c2)N(C[C@@H]2CC[C@H]21)C[C@@]1(CCCc2cc(Cl)ccc21)CO3 [Example 305, (1S,3′R,6′R,7′S,8′E,11′S,12′R)-6-chloro-7′-methoxy-11′,12′-dimethyl-7′-((4-(5-pyrimidinyl)-1-piperazinyl)methyl)-3,4-dihydro-2H,15′H-spiro[naphthalene-1,22′-[20]oxa[13]thia[1,14]diazatetracyclo [14.7.2.0~3,6~.0~19,24~]pentacosa[8,16,18,24]tetraen]-15′-one 13′,13′-dioxide] | 0.33 nM | 327 nM | – | – |
| CO[C@]1(CC2=NC(C)(C)CO2)/C=C/C[C@H](C)[C@@H](C)S(=O)(=O)NC(=O)c2ccc3c(c2)N(C[C@@H]2CC[C@H]21)C[C@@]1(CCCc2cc(Cl)ccc21)CO3 [Example 100380, (1S,3′R,6′R,7′R,8′E,11′S,12′R)-6-chloro-7′-((4,4-dimethyl-4,5-dihydro-1,3-oxazol-2-yl)methyl)-7′-methoxy-11′,12′-dimethyl-3,4-dihydro-2H,15′H-spiro[naphthalene-1,22′-[20]oxa[13]thia[1,14]diazatetracyclo [14.7.2.0~3,6~.0~19,24~]pentacosa[8,16,18,24]tetraen]-15′-one 13′,13′-dioxide] | – | – | 0.208 nM | 137 nM |
| CC(C)C[C@]1(O)/C=C/C[C@H](C)[C@@H](C)S(=O)(=O)NC(=O)c2ccc3c(c2)N(C[C@@H]2CC[C@H]21)C[C@@]1(CCCc2cc(Cl)ccc21)CO3 [Example 100224, (1S,3′R,6′R,7′S,8′E,11′S,12′R)-6-chloro-7′-hydroxy-11′,12′-dimethyl-7′-(2-methylpropyl)-3,4-dihydro-2H,15′H-spiro[naphthalene-1,22′-[20]oxa[13]thia[1,14]diazatetracyclo [14.7.2.0~3,6~.0~19,24~]pentacosa[8,16,18,24]tetraen]-15′-one 13′,13′-dioxide] | – | – | 0.345 nM | 385 nM |
| CC[C@@H]1CCCC[C@](O)(CO)[C@@H]2CC[C@H]2CN2C[C@@]3(CCCc4cc(Cl)ccc43)COc3ccc(cc32)C(=O)NS1(=O)=O [Example 100036, (1S,3′R,6′R,7′R,12′R)-6-chloro-12′-ethyl-7′-hydroxy-7′-(hydroxymethyl)-3,4-dihydro-2H,15′H-spiro[naphthalene-1,22′-[20]oxa[13]thia[1,14]diazatetracyclo [14.7.2.0~3,6~.0~19,24~]pentacosa[16,18,24]trien]-15′-one 13′,13′-dioxide] | – | – | 0.889 nM | 1980 nM |
